# System: Plasmodium berghei
# Assay: Luciferase/luciferin-expressing antifolate-resistant parasites were used to infect a culture of HepG2 cells that were pre-incubated with compounds. Infected hepatocytes emit light due to the luciferase reaction. Assay results are presented as the percent inhibition of light emission compared to control. […]
# Type: functional
# Details: sporozoite; for IC90: read-out: LUCIFERASE INFECTION ASSAY - IC90
SMILES,IC90 [µM],also measured
c1ccc(-c2cc3nc(NCC4CC4)nc(NCC4CCCCC4)c3s2)cc1,3.98,"IC50 (HEPG2TOX_HILL_SLOPE 9.69, HEPG2TOX_R_SQUARED 0.573, PBLUC_HILL_SLOPE 14.3, PBLUC_R_SQUARED 0.374, read-out: LUCIFERASE INFECTION ASSAY - IC50): 3.41 µM"
Cn1cc(-c2cn3c(-c4ccc(O)cc4)cnc3cn2)cn1,> 11.3,"IC50 (HEPG2TOX_HILL_SLOPE 9.44, HEPG2TOX_R_SQUARED 0.67, PBLUC_HILL_SLOPE 2.21, PBLUC_R_SQUARED 0.503, read-out: LUCIFERASE INFECTION ASSAY - IC50): 6.85 µM"
Cc1cc(=O)n2nc(-c3ccc(C(C)(C)C)cc3)cc2[nH]1,2.42,"IC50 (HEPG2TOX_HILL_SLOPE 9.72, HEPG2TOX_R_SQUARED 0.89, PBLUC_HILL_SLOPE 2.59, PBLUC_R_SQUARED 0.666, read-out: LUCIFERASE INFECTION ASSAY - IC50): 1.04 µM"
Cc1cccc(C(=O)Nc2nc3ccc(C)cn3c2C(=O)NCC(C)C)c1,3.75,"IC50 (HEPG2TOX_HILL_SLOPE 9.43, HEPG2TOX_R_SQUARED 0.373, PBLUC_HILL_SLOPE 11.3, PBLUC_R_SQUARED 0.193, read-out: LUCIFERASE INFECTION ASSAY - IC50): 3.09 µM"
C[S+]([O-])c1ccc(C(F)(F)F)cc1[N+](=O)[O-] (centres undefined),> 13,"IC50 (HEPG2TOX_HILL_SLOPE 9.53, HEPG2TOX_R_SQUARED 0.815, PBLUC_HILL_SLOPE 1.65, PBLUC_R_SQUARED 0.298, read-out: LUCIFERASE INFECTION ASSAY - IC50): 11.1 µM"
Cc1cc(NC(=O)C(C)n2nc(-c3cccs3)c3ccccc3c2=O)no1 (centres undefined),> 10,"IC50 (HEPG2TOX_HILL_SLOPE 9.69, HEPG2TOX_R_SQUARED 0.542, read-out: LUCIFERASE INFECTION ASSAY - IC50): > 10 µM"
Cc1cn2nc(N(C)Cc3ccc(N(C)C)cc3)sc2n1,> 10,"IC50 (HEPG2TOX_HILL_SLOPE 9.75, HEPG2TOX_R_SQUARED 0.561, PBLUC_HILL_SLOPE 7.25, PBLUC_R_SQUARED 0.0375, read-out: LUCIFERASE INFECTION ASSAY - IC50): 7.97 µM"
COc1ccccc1C(=O)c1cnc(Nc2cccc(-c3ccccc3)c2)[nH]1,> 8.93,"IC50 (HEPG2TOX_HILL_SLOPE 9.5, HEPG2TOX_R_SQUARED 0.78, PBLUC_HILL_SLOPE 12, PBLUC_R_SQUARED 0.218, read-out: LUCIFERASE INFECTION ASSAY - IC50): 8.03 µM"
Cc1nnc(Sc2nc(CN3CCCCC3)nc3sc4c(c23)CCC4)s1,> 10,"IC50 (HEPG2TOX_HILL_SLOPE 9.43, HEPG2TOX_R_SQUARED 0.839, read-out: LUCIFERASE INFECTION ASSAY - IC50): > 10 µM"
O=S(=O)(Nc1ccc(Cl)cc1)c1ccc2nc(-c3ccccn3)[nH]c2c1,8.29,"IC50 (HEPG2TOX_HILL_SLOPE 9.44, HEPG2TOX_R_SQUARED 0.935, PBLUC_HILL_SLOPE 6.04, PBLUC_R_SQUARED 0.808, read-out: LUCIFERASE INFECTION ASSAY - IC50): 5.77 µM"
COc1cc(-c2ccc3ncc(-c4cccc(Cl)c4)n3n2)cc(OC)c1OC,5.69,"IC50 (HEPG2TOX_HILL_SLOPE 9.46, HEPG2TOX_R_SQUARED 0.786, PBLUC_HILL_SLOPE 7.92, PBLUC_R_SQUARED 0.391, read-out: LUCIFERASE INFECTION ASSAY - IC50): 4.31 µM"
O=C(Nc1ccc(C(F)(F)F)cc1)Nc1sccc1Cl,7.98,"IC50 (HEPG2TOX_HILL_SLOPE 9.59, HEPG2TOX_R_SQUARED 0.7, PBLUC_HILL_SLOPE 5.14, PBLUC_R_SQUARED 0.452, read-out: LUCIFERASE INFECTION ASSAY - IC50): 5.21 µM"
Cc1cc(=O)nc(N/N=C/c2c(C)nn(-c3cccc(C(F)(F)F)c3)c2Cl)[nH]1,8.03,"IC50 (HEPG2TOX_HILL_SLOPE 9.49, HEPG2TOX_R_SQUARED 0.952, PBLUC_HILL_SLOPE 2.17, PBLUC_R_SQUARED 0.422, read-out: LUCIFERASE INFECTION ASSAY - IC50): 2.91 µM"
CCN1C/C(=C/c2cc(Cl)c(OC(C)C)c(OC)c2)C(=O)/C(=C/c2cc(Cl)c(OC(C)C)c(OC)c2)C1,3.46,"IC50 (HEPG2TOX_HILL_SLOPE 9.62, 4.07, HEPG2TOX_R_SQUARED 0.967, 0.574, PBLUC_HILL_SLOPE 16.5, 9.41, PBLUC_R_SQUARED 0.287, 0.470, read-out: LUCIFERASE INFECTION ASSAY - IC50): 2.85 µM"
Oc1c(Cl)cc(Cl)cc1/C=N/NC(=S)NC1CCCC1,3.83,"IC50 (HEPG2TOX_HILL_SLOPE 9.72, HEPG2TOX_R_SQUARED 0.599, PBLUC_HILL_SLOPE 20.7, PBLUC_R_SQUARED 0.654, read-out: LUCIFERASE INFECTION ASSAY - IC50): 3.45 µM"
CC(C)NC(=O)/C(C#N)=C/c1cccc(Cl)c1Cl,> 10,"IC50 (HEPG2TOX_HILL_SLOPE 9.7, HEPG2TOX_R_SQUARED 0.0223, read-out: LUCIFERASE INFECTION ASSAY - IC50): > 10 µM"

SMILES,IC90 [µM],also measured
CC(C)(C)c1ccc(C(=O)Nc2ccc(N3CCCS3(=O)=O)cc2)cc1[N+](=O)[O-],5.03,"IC50 (HEPG2TOX_HILL_SLOPE 9.4, HEPG2TOX_R_SQUARED 0.847, PBLUC_HILL_SLOPE 1.92, PBLUC_R_SQUARED 0.511, read-out: LUCIFERASE INFECTION ASSAY - IC50): 1.6 µM"
FC(F)(F)c1cc(/C=N/Nc2c(Cl)cc(C(F)(F)F)cc2Cl)cc(C(F)(F)F)c1,6.93,"IC50 (HEPG2TOX_HILL_SLOPE 9.76, HEPG2TOX_R_SQUARED 0.862, PBLUC_HILL_SLOPE 9.4, PBLUC_R_SQUARED 0.388, read-out: LUCIFERASE INFECTION ASSAY - IC50): 5.49 µM"
FC(F)(F)Oc1ccc(-c2ccc(OCc3ccccn3)nc2)cc1,> 9.53,"IC50 (HEPG2TOX_HILL_SLOPE 9.63, HEPG2TOX_R_SQUARED 0.944, read-out: LUCIFERASE INFECTION ASSAY - IC50): > 9.53 µM"
Oc1ccc(Br)cc1/C=N/NC(=S)NC1CC2CCC1C2 (centres undefined),8.93,"IC50 (HEPG2TOX_HILL_SLOPE 9.58, HEPG2TOX_R_SQUARED 0.779, PBLUC_HILL_SLOPE 13.3, PBLUC_R_SQUARED 0.143, read-out: LUCIFERASE INFECTION ASSAY - IC50): 7.57 µM"
Cc1cc(C(C)(C)C)cc(C)c1CCNC(=O)C1CCN(c2cnccn2)CC1,> 10,"IC50 (HEPG2TOX_HILL_SLOPE 9.49, HEPG2TOX_R_SQUARED 0.929, PBLUC_HILL_SLOPE 9.04, PBLUC_R_SQUARED 0.464, read-out: LUCIFERASE INFECTION ASSAY - IC50): 8.99 µM"
Cc1ccccc1CNC(=O)c1ccc(NC(=O)c2ccco2)s1,> 10,"IC50 (HEPG2TOX_HILL_SLOPE 9.39, HEPG2TOX_R_SQUARED 0.787, PBLUC_HILL_SLOPE 2.67, PBLUC_R_SQUARED 0.485, read-out: LUCIFERASE INFECTION ASSAY - IC50): 5.78 µM"
Cn1c(=O)c2cc3cc(Cl)ccc3nc2c2c(=O)n(-c3ccccc3)c(=O)n(-c3ccccc3)c21,> 6.86,"IC50 (HEPG2TOX_HILL_SLOPE 9.44, HEPG2TOX_R_SQUARED 0.957, PBLUC_HILL_SLOPE 32.7, PBLUC_R_SQUARED 0.0582, read-out: LUCIFERASE INFECTION ASSAY - IC50): 6.86 µM"
CC(c1ccc(-n2cncn2)cc1)N(C)c1ncnc2ccsc12 (centres undefined),> 10,"IC50 (HEPG2TOX_HILL_SLOPE 9.54, HEPG2TOX_R_SQUARED 0.431, PBLUC_HILL_SLOPE 1.32, 1.56, PBLUC_R_SQUARED 0.780, 0.216, read-out: LUCIFERASE INFECTION ASSAY - IC50): 3.71 µM"
CCn1nc(C)cc1-c1nnc(Cc2ncc([N+](=O)[O-])s2)n1CCCOC,5.21,"IC50 (HEPG2TOX_HILL_SLOPE 9.43, HEPG2TOX_R_SQUARED 0.891, PBLUC_HILL_SLOPE 6.15, PBLUC_R_SQUARED 0.786, read-out: LUCIFERASE INFECTION ASSAY - IC50): 3.65 µM"
Oc1cccc(-c2ccnc3n[nH]c(-c4ccc5c(c4)OCO5)c23)c1,6.14,"IC50 (HEPG2TOX_HILL_SLOPE 9.48, HEPG2TOX_R_SQUARED 0.645, PBLUC_HILL_SLOPE 1.2, PBLUC_R_SQUARED 0.596, read-out: LUCIFERASE INFECTION ASSAY - IC50): 0.984 µM"
CCCCc1c(O)cc2n(c1=O)-c1ccc(Cl)cc1C2(C)C,> 10.4,"IC50 (HEPG2TOX_HILL_SLOPE 9.65, HEPG2TOX_R_SQUARED 0.788, PBLUC_HILL_SLOPE 4.5, PBLUC_R_SQUARED 0.532, read-out: LUCIFERASE INFECTION ASSAY - IC50): 7.82 µM"
COc1ccc(-c2cnc3ccc(NCc4ccc(C)cc4C)nn23)cn1,9.01,"IC50 (HEPG2TOX_HILL_SLOPE 9.76, HEPG2TOX_R_SQUARED 0.857, PBLUC_HILL_SLOPE 10.1, PBLUC_R_SQUARED 0.466, read-out: LUCIFERASE INFECTION ASSAY - IC50): 7.25 µM"
N#C/C(=C(/Oc1ccc(Cl)cc1Cl)C(F)(F)F)c1ccccc1,> 9.21,"IC50 (HEPG2TOX_HILL_SLOPE 9.57, HEPG2TOX_R_SQUARED 0.894, PBLUC_HILL_SLOPE 12.7, PBLUC_R_SQUARED 0.611, read-out: LUCIFERASE INFECTION ASSAY - IC50): 8.77 µM"
CC(C)(C)c1csc(NC(=O)Nc2ccc(Cl)cc2)n1,> 10.7,"IC50 (HEPG2TOX_HILL_SLOPE 9.42, HEPG2TOX_R_SQUARED 0.969, PBLUC_HILL_SLOPE 14.5, PBLUC_R_SQUARED 0.489, read-out: LUCIFERASE INFECTION ASSAY - IC50): 9.21 µM"
COC(=O)c1occc1/C=C/C(=O)C12CC3CC(CC(C3)C1)C2,7.04,"IC50 (HEPG2TOX_HILL_SLOPE 9.64, HEPG2TOX_R_SQUARED 0.941, PBLUC_HILL_SLOPE 4.67, PBLUC_R_SQUARED 0.564, read-out: LUCIFERASE INFECTION ASSAY - IC50): 4.4 µM"
O=C(NCCOc1cccc(Oc2ccccc2)c1)c1cccs1,> 9.72,"IC50 (HEPG2TOX_HILL_SLOPE 9.69, HEPG2TOX_R_SQUARED 0.418, PBLUC_HILL_SLOPE 2.28, PBLUC_R_SQUARED 0.595, read-out: LUCIFERASE INFECTION ASSAY - IC50): 4.13 µM"
